Earlier results on 1 molecule are cited in patent US20150031737A1, “STABILIZED CONTROLLED-RELEASE PHARMACEUTICAL COMPOSITION COMPRISING GLICLAZIDE” (RANBAXY LABORATORIES LIMITED, priority 2012, published 2015).

Each structure is given as a SMILES string.

Take `Cc1ccc(S(=O)(=O)NC(=O)NN2CC3CCCC3C2)cc1` (stereo not shown) [Gliclazide]: the pKa entry is “about 5.8”.
